Experimental findings from ChEMBL document CHEMBL1201862, “PubChem BioAssay data set” (2004) are described below.

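In this assay, cells in 96-well plates receive the compound at five concentrations for 48 hours. Endpoints are linearly interpolated between the surrounding concentrations. Abbreviation: GI50, concentration required for 50% inhibition of growth.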 Active and inactive are the calls of the source. No stated cut-off is given here; in the data, active = GI50 up to about 1.1 µM and inactive = higher.

Some test systems named below: CCRF-CEM; SK-MEL-2; A549; SNB-75; SF-539; SW-620; OVCAR-5; SK-MEL-5; SR; M14; UACC-62; NCI-H23; KM-20L2; EKVX; SNB-19; MOLT-4; HL-60; T47D; MDA-N; MDA-MB-231.
Common to all, as to test: growth of human tumour cells (NCI), 48 h

For `Cn1cnc([N+](=O)[O-])c1Sc1nccn1-c1ccccc1`, the GI50 with CCRF-CEM was 36.3 µM (inactive); in the experiment with SK-MEL-2 it was 21.4 µM (inactive); in the experiment on A549 it was > 100 µM (inactive); with SNB-75, 71.9 µM (inactive); in the experiment on SF-539 it was 68.2 µM (inactive); with SW-620, 42.9 µM (inactive). In addition, the GI50 was > 100 µM (inactive) in the experiment on OVCAR-5; 69.2 µM (inactive) with SK-MEL-5; 21.2 µM (inactive) in the experiment on SR; 44.9 µM (inactive) in the experiment with M14; 35.2 µM (inactive) with UACC-62; 29.9 µM (inactive) in the experiment on NCI-H23. Also, the GI50 in the experiment on KM-20L2 is > 100 µM (inactive); with EKVX it was 44.7 µM (inactive); in the experiment with SNB-19, > 100 µM (inactive); in the experiment with MOLT-4, 21.5 µM (inactive).

Turning to `Cc1cc2nc3c(C(OC4OC(CO)C(O)C(O)C4O)C(O)CO)nn(-c4ccccc4)c3nc2cc1C` (stereo not given), the GI50 was > 100 µM (inactive) in the experiment with CCRF-CEM; 64 µM (inactive) with SNB-75; > 100 µM (inactive) with SF-539; > 100 µM (inactive) with OVCAR-5; > 100 µM (inactive) in the experiment on SR; > 100 µM (inactive) with M14. Further, the GI50 in the experiment on UACC-62, in the experiment with NCI-H23, in the experiment on KM-20L2, with EKVX, in the experiment with SNB-19 and in the experiment on MOLT-4 was > 100 µM (inactive) in each case.

In the case of `CCC(C)(C)NS(=O)(=O)c1ccccc1`, the GI50 in the experiment on CCRF-CEM, in the experiment on SK-MEL-2, in the experiment on HL-60, in the experiment on A549, in the experiment on SNB-75 and in the experiment on SF-539 was > 100 µM (inactive) throughout. The GI50 with SW-620, in the experiment on OVCAR-5, in the experiment with SK-MEL-5, with M14, in the experiment on UACC-62 and with NCI-H23 was > 100 µM (inactive) in each case. Moreover, the GI50 in the experiment with KM-20L2, in the experiment with EKVX and in the experiment with MOLT-4 was > 100 µM (inactive) throughout.

`CS(=O)(=O)c1nc(-c2cc3c(c(S(C)(=O)=O)n2)CCCC3)cc2c1CCCC2`: the GI50 is > 100 µM (inactive) in the experiment on CCRF-CEM; > 54.3 µM (inactive) in the experiment on SK-MEL-2; > 100 µM (inactive) with HL-60; > 100 µM (inactive) in the experiment with T47D; > 100 µM (inactive) with A549; > 100 µM (inactive) in the experiment on MDA-N. In addition, the GI50 in the experiment with SNB-75 is 6.75 µM (inactive); with SF-539 it was > 65.2 µM (inactive); with SW-620 it was > 100 µM (inactive); in the experiment on OVCAR-5 it was > 100 µM (inactive); with MDA-MB-231, 56.5 µM (inactive); in the experiment on SK-MEL-5, > 100 µM (inactive). Further, the GI50 in the experiment on SR is > 100 µM (inactive); with M14 it was > 100 µM (inactive); in the experiment with UACC-62, > 38.4 µM (inactive); in the experiment on NCI-H23 it was > 63 µM (inactive); in the experiment on EKVX it was > 70.1 µM (inactive); in the experiment with SNB-19 it was > 55.7 µM (inactive). Besides, in the experiment on MOLT-4, the GI50 is > 100 µM (inactive).

Turning to `O=C(CSc1nnc(Cc2ccccc2)o1)Nc1ccccc1Cl`, the GI50 in the experiment with CCRF-CEM, in the experiment with SK-MEL-2, in the experiment on HL-60, with A549, with SF-539 and in the experiment with SW-620 was > 100 µM (inactive) throughout. The GI50 in the experiment on OVCAR-5, with SK-MEL-5, in the experiment on M14, with UACC-62, in the experiment on NCI-H23 and with KM-20L2 was > 100 µM (inactive) each time. Moreover, the GI50 in the experiment with SNB-19 and with MOLT-4 was > 100 µM (inactive) each time.

On to `CC(=O)Oc1cc(C)c2c(c1OC(C)=O)CC1(O2)[C@@H](C)CCC2[C@@]3(C)CC[C@H](OC(C)=O)C(C)(C)C3CC[C@]21C` (stereo not given in full), for which the GI50 in the experiment on A549 is 5.3 µM (inactive); in the experiment on SNB-75, 3.57 µM (inactive); in the experiment with SF-539, 2.81 µM (inactive); in the experiment with SW-620, 2.82 µM (inactive); in the experiment with OVCAR-5 it was 5.46 µM (inactive); in the experiment with SK-MEL-5, 3.1 µM (inactive). The GI50 was 3.03 µM (inactive) in the experiment with SR; 6.08 µM (inactive) in the experiment with M14; 2.46 µM (inactive) in the experiment with UACC-62; 2.19 µM (inactive) with NCI-H23; 14.1 µM (inactive) in the experiment on KM-20L2; 3.69 µM (inactive) with EKVX. Also, the GI50 in the experiment with SNB-19 is 7.31 µM (inactive); in the experiment on MOLT-4 it was 4.57 µM (inactive).

In the case of `CC1=C(CO)C(=O)O[C@@H]([C@@H](CO)[C@H]2CCC3C4C[C@@H](O)[C@@]5(O)CC=CC(=O)[C@]5(C)C4CC[C@@]32C)C1` (stereo not given in full), the GI50 was 34.1 µM (inactive) with CCRF-CEM; 53.6 µM (inactive) in the experiment with SK-MEL-2; 31.2 µM (inactive) in the experiment with HL-60; 86.3 µM (inactive) in the experiment with T47D; > 100 µM (inactive) in the experiment on A549; 71.9 µM (inactive) in the experiment with MDA-N. Further, the GI50 in the experiment on SNB-75 was 35.6 µM (inactive); in the experiment with SF-539, 53.8 µM (inactive); in the experiment on SW-620 it was 29 µM (inactive); in the experiment on OVCAR-5 it was 83.9 µM (inactive); in the experiment on MDA-MB-231 it was 59.2 µM (inactive); in the experiment with SK-MEL-5 it was 51.4 µM (inactive). In addition, the GI50 is 34.9 µM (inactive) with SR; 53.7 µM (inactive) in the experiment on M14; 47 µM (inactive) with UACC-62; 67.9 µM (inactive) in the experiment on NCI-H23; > 100 µM (inactive) in the experiment with EKVX; > 100 µM (inactive) in the experiment with SNB-19. The GI50 in the experiment with MOLT-4 is 36.3 µM (inactive).

For `CC(C)CCC[C@@H](C)C1CCC2[C@@H]3CC=C4C[C@@H](C(=O)NCCN(C)C)CC[C@]4(C)C3CC[C@@]21C` (stereo not given in full), the GI50 with CCRF-CEM is 23.8 µM (inactive); in the experiment with SK-MEL-2 it was 11.5 µM (inactive); in the experiment with HL-60 it was 45.8 µM (inactive); in the experiment with A549, 23.1 µM (inactive); in the experiment on SNB-75 it was 20.4 µM (inactive); with SF-539, 17.1 µM (inactive). Moreover, the GI50 is 30 µM (inactive) in the experiment on SW-620; > 100 µM (inactive) with OVCAR-5; > 10 µM (inactive) in the experiment with SK-MEL-5; 16.3 µM (inactive) in the experiment on M14; 42.4 µM (inactive) in the experiment with UACC-62; 18.3 µM (inactive) in the experiment with NCI-H23. Further, the GI50 was 83 µM (inactive) in the experiment on KM-20L2, 47.5 µM (inactive) in the experiment with EKVX, 28.6 µM (inactive) in the experiment with SNB-19 and 31.1 µM (inactive) in the experiment on MOLT-4.

With `O=c1c(O)cccn1C1OC(CO)C(O)C1O` (stereo not given), the GI50 in the experiment with CCRF-CEM, in the experiment with SK-MEL-2, in the experiment on A549, in the experiment on SNB-75, with OVCAR-5 and in the experiment with M14 was > 100 µM (inactive) throughout. Further, the GI50 with UACC-62, in the experiment with NCI-H23, with KM-20L2, with EKVX and with SNB-19 was > 100 µM (inactive) in each case.

Turning to `CC(=O)OC1CC2C(C)(C)C(=O)C=C[C@]2(C)C2CCC3(C)C(c4ccoc4)C(=O)[C@H]4O[C@]43[C@]12C` (stereo not given in full), the GI50 with CCRF-CEM is 15.5 µM (inactive); with SK-MEL-2 it was 20.8 µM (inactive); with HL-60 it was 20.2 µM (inactive); in the experiment on A549, > 10 µM (inactive); in the experiment with SNB-75 it was 29.8 µM (inactive); in the experiment on SF-539 it was 20 µM (inactive). The GI50 with SW-620 was 28.5 µM (inactive); with OVCAR-5, 26.7 µM (inactive); in the experiment on SK-MEL-5 it was 17.7 µM (inactive); in the experiment on M14, 26.7 µM (inactive); with UACC-62, 18 µM (inactive); in the experiment with NCI-H23 it was 21.5 µM (inactive). For the same compound, the GI50 in the experiment on KM-20L2 is > 10 µM (inactive); in the experiment on EKVX it was 31.3 µM (inactive); in the experiment with SNB-19, 23.3 µM (inactive); in the experiment with MOLT-4, 16 µM (inactive).

For the compound `COc1cccc(-c2cc(=O)c3ccc(C)nc3[nH]2)c1`, the GI50 in the experiment with CCRF-CEM was 0.0459 µM (active); in the experiment on SK-MEL-2, 0.0541 µM (active); in the experiment on HL-60, 0.0212 µM (active); in the experiment on T47D, 57.9 µM (inactive); in the experiment on A549 it was 0.0728 µM (active); in the experiment on MDA-N, 0.0115 µM (active). For the same compound, the GI50 was 0.0201 µM (active) in the experiment with SNB-75; 0.0388 µM (active) in the experiment on SF-539; 0.0383 µM (active) with SW-620; 0.239 µM (active) with OVCAR-5; 0.245 µM (active) in the experiment with MDA-MB-231; 0.036 µM (active) in the experiment on SK-MEL-5. In addition, the GI50 in the experiment on SR is 0.016 µM (active); in the experiment with M14, 0.0454 µM (active); in the experiment with UACC-62, 0.0436 µM (active); with NCI-H23 it was 0.214 µM (active); in the experiment with EKVX it was 1.96 µM (inactive); in the experiment on SNB-19, 0.0592 µM (active). Moreover, the GI50 in the experiment on MOLT-4 was 0.0741 µM (active).

For `O=C(O)[C@@H]1C[C@@H](O)CN1`, the GI50 in the experiment with CCRF-CEM, in the experiment with SK-MEL-2, in the experiment on HL-60, in the experiment with T47D, in the experiment with A549 and in the experiment on MDA-N was > 100 µM (inactive) in each case. Besides, the GI50 with SNB-75, in the experiment on SF-539, in the experiment with SW-620, in the experiment with OVCAR-5, in the experiment with MDA-MB-231 and in the experiment with SK-MEL-5 was > 100 µM (inactive) throughout. In addition, the GI50 in the experiment on SR, in the experiment on M14, in the experiment on UACC-62, in the experiment with NCI-H23, in the experiment on EKVX and in the experiment with SNB-19 was > 100 µM (inactive) in each case. The GI50 in the experiment with MOLT-4 is > 100 µM (inactive).
